Assay results taken from US9079901B2, “Fused heterocyclic compounds as ion channel modulators” (Gilead Sciences, Inc., priority 2010, dated 2015).

Target: wild-type human cardiac sodium channel, hNav1.5 (late sodium current) in HEK293 cells (Homo sapiens, UniProt Q14524)
Test: Late INa screening assay (automated whole-cell patch clamp, PatchXpress)
Type: cell-based
Conditions: HEK293, compound at 1 μM; late INa generated with 10 μM Tefluthrin (or 50 nM ATX II); HEK293 hNav1.5; read-out: Late INa 1 μM (percent block of late INa)
How it was run: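 hNav1.5-expressing HEK293 cells (no β subunits) were recorded by automated whole-cell patch clamp at 24–27 °C with CsF-based internal solution. Late current was induced by 10 μM tefluthrin (or 50 nM ATX II) and evoked by 250 ms steps from −120 to −20 mV at 0.1 Hz. Compounds, typically 10 μM, were applied in three additions over 7–8 min; mean current at 225–250 ms, normalised to 0Na baseline, gave percent block.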

Chain of wild-type human cardiac sodium channel, hNav1.5 (late sodium current) in HEK293 cells (Q14524 whole entry): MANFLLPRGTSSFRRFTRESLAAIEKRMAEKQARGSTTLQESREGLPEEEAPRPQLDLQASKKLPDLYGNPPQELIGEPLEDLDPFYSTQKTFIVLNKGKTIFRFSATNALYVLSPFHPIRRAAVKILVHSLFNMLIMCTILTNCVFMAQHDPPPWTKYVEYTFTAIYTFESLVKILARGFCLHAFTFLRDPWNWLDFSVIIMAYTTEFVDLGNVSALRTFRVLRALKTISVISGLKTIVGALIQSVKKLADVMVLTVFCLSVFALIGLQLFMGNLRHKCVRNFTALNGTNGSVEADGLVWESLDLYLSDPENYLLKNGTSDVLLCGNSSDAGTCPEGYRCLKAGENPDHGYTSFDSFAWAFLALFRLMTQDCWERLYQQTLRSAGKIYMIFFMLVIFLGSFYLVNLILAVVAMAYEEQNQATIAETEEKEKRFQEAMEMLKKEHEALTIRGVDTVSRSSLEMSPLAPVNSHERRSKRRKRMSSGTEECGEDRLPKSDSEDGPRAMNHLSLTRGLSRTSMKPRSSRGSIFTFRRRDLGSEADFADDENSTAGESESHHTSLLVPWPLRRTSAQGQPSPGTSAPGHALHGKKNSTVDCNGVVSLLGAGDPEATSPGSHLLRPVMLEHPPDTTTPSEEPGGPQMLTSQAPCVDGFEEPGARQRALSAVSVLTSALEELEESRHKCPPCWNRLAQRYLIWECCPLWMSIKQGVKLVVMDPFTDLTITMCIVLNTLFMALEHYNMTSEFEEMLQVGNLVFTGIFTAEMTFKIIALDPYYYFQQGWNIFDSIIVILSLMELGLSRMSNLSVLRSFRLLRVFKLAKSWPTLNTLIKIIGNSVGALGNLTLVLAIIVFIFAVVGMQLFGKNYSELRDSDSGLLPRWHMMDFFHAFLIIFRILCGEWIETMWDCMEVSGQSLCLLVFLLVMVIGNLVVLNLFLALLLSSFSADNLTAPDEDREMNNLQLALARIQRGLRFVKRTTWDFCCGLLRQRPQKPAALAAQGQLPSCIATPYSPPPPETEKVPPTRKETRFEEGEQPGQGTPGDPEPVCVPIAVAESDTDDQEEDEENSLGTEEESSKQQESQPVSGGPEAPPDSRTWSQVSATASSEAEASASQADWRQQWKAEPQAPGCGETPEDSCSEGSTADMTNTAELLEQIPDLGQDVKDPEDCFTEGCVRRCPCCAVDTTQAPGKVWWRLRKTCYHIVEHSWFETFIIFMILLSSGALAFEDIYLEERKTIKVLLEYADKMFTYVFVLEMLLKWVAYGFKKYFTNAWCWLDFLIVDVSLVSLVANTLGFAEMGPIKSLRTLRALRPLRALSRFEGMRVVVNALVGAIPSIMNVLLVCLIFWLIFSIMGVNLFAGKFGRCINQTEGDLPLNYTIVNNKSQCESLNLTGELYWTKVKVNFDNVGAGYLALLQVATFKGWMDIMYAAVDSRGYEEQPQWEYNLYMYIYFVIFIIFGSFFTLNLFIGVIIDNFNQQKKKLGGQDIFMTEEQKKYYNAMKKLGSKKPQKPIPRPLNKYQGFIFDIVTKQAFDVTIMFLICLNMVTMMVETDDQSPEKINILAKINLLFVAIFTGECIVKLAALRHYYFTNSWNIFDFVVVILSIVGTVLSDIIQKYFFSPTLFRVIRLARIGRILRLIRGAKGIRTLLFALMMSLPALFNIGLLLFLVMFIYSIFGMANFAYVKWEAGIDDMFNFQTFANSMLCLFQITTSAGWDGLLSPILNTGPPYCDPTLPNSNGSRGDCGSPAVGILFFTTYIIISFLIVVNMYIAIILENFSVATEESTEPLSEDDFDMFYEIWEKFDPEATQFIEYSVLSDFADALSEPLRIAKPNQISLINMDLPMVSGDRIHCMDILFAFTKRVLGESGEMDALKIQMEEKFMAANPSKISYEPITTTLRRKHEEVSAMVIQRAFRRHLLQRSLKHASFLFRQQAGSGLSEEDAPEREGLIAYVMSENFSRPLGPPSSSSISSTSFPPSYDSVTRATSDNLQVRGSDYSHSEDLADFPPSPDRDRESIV

`O=c1n(Cc2nc(C3CC3)co2)nc2ccc(-c3ccc(C(F)(F)F)cc3)cn12` [compound 194, 2-((4-cyclopropyloxazol-2-yl)methyl)-6-(4-(trifluoromethyl)phenyl)-[1,2,4]triazolo[4,3-a]pyridin-3(2H)-one] was tested, and the inhibition at 1 µM was 21.6%.

Molecule `Cc1cnc(Cn2nc3ccc(-c4ccc(Cl)cc4)cn3c2=O)o1` [compound 195, 6-(4-chlorophenyl)-2-((5-methyloxazol-2-yl)methyl)-[1,2,4]triazolo[4,3-a]pyridin-3(2H)-one] has an inhibition at 1 µM of 31.2%.

`Cc1cc(-c2ccc(OC(F)(F)F)cc2)cn2c(=O)[nH]nc12` [compound 196, 8-methyl-6-(4-(trifluoromethoxy)phenyl)-[1,2,4]triazolo[4,3-a]pyridin-3(2H)-one] gave an inhibition at 1 µM of 38.3%.

With `Cc1ncc(Cn2nc3ccc(-c4ccc(C(F)(F)F)cc4)cn3c2=O)o1` [compound 197, 2-((2-methyloxazol-5-yl)methyl)-6-(4-(trifluoromethyl)phenyl)-[1,2,4]triazolo[4,3-a]pyridin-3(2H)-one] the inhibition at 1 µM was 19.7%.

Molecule `COc1cc(Cl)c(Cl)cc1OCC(O)Cn1nc2ccc(-c3ccc(C(F)(F)F)cc3)cn2c1=O` (centres unmarked) [compound 198, 2-(3-(4,5-dichloro-2-methoxyphenoxy)-2-hydroxypropyl)-6-(4-(trifluoromethyl)phenyl)-[1,2,4]triazolo[4,3-a]pyridin-3(2H)-one] has an inhibition at 1 µM of 14.8%.

For `O=c1n(Cc2ncc(C3CC3)o2)nc2ccc(-c3ccc(OC(F)(F)F)cc3)cn12` [compound 199, 2-((5-cyclopropyloxazol-2-yl)methyl)-6-(4-(trifluoromethoxy)phenyl)-[1,2,4]triazolo[4,3-a]pyridin-3(2H)-one], the inhibition at 1 µM was 22.5%.

Molecule `O=c1[nH]nc2ccc(-c3ccc(OC(F)(F)F)cc3)cn12` [compound 200, 6-(4-(trifluoromethoxy)phenyl)-[1,2,4]triazolo[4,3-a]pyridin-3(2H)-one] has an inhibition at 1 µM of 26.5%.

Work on `Cn1nc2ccc(-c3ccc(OC(F)(F)F)cc3)cn2c1=O` [compound 201, 2-methyl-6-(4-(trifluoromethoxy)phenyl)-[1,2,4]triazolo[4,3-a]pyridin-3(2H)-one] yielded an inhibition at 1 µM of 38.7%.
